Patent US7109354B2, “Thiophene amidines, compositions thereof, and methods of treating complement-mediated diseases and conditions” (3-Dimensional Pharmaceuticals, Inc., priority 2002, dated 2006)
Structures can show the parent of a compound that is named as a salt.

These compounds were tested against T1, Activated human C1s (Homo sapiens, UniProt P09871) (assay: In vitro inhibition of C1s (Ki determination, C1s-catalyzed hydrolysis of Z-Gly-Arg-S-Bzl, DTNB readout)). Conditions: substrate Z-Gly-Arg-S-Bzl 45 μM, DTNB 200 μM, C1s 2.3 nM, pH 7.5, 37° C., absorbance at 405 nm.
T1 construct: purchased Calbiochem (La Jolla, Calif.)
T1 sequence (P09871 438-688 limits assumed): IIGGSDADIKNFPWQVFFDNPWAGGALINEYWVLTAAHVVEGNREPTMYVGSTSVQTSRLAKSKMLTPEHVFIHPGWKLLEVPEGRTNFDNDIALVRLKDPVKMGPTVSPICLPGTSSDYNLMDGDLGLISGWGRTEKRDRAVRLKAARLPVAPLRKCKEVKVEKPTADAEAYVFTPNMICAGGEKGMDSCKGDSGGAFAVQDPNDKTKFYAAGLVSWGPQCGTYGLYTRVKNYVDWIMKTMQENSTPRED
T1 sequence (P09871 16-437 partner limits assumed): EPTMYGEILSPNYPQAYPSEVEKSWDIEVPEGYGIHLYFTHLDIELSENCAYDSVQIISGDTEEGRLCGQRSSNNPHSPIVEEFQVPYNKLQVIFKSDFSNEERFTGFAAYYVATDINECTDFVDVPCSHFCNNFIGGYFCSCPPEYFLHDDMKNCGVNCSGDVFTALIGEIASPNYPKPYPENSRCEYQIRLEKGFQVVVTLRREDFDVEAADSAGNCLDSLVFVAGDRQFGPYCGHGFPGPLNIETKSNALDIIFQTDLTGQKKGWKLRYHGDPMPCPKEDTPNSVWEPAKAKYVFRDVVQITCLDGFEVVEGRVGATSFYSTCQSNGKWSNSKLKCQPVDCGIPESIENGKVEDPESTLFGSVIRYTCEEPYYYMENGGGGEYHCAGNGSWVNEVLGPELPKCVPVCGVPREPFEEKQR
Type: biochemical
Description: Reagents: All buffer salts were obtained from Sigma Chemical Company (St. Louis, Mo.), and were of the highest purity available. DTNB was purchased from Pierce (Rockford, Ill.). Z-Gly-Arg-S-Bzl was purchased from Enzyme Systems Products (Livermore, Calif.). Activated human C1s was purchased from Calbiochem (La Jolla, Calif.).
Test compounds are prepared as a 10 μM solution in DMSO. Dilutions are prepared in DMSO yielding 7 final concentrations encompassing a 700-fold concentration range.
Reactions were initiated by the addition of a 10 μL aliquot of the enzyme, and the absorbance increase at 405 nm is continuously recorded for 15 minutes in a Molecular Devices plate reader. Final DMSO concentration was 4.3%. […] The ratio of the velocity (rate of change in absorbance as a function of time) for a sample containing no test compound is divided by the velocity of a sample containing test compound, and is plotted as a function of test compound concentration. The data are fit to a linear regression, and the value of the slope of the line calculated. The inverse of the slope is the experimentally determined Ki value.

Ki | SMILES
6 to 23 nM | CSc1sc(C(=N)N)cc1S(=O)(=O)c1cccc(-c2cc(C=O)ccc2C)c1 [Example 8, 4-(5′-Formyl-2′-methyl-biphenyl-3-sulfonyl)-5-methylsulfanyl-thiophene-2-carboxamidine trifluoroacetate]
6 to 23 nM | CSc1sc(C(=N)N)cc1S(=O)(=O)c1cccc(-c2ccc(Oc3ccccc3)cc2)c1 [Example 56, 5-Methylsulfanyl-4-(4′-phenoxy-biphenyl-3-sulfonyl)-thiophene-2-carboxamidine]
6 to 23 nM | CSc1sc(C(=N)N)cc1S(=O)(=O)c1cccc(-c2ccoc2)c1 [Example 72, 4-(3-Furan-3-yl-benzenesulfonyl)-5-methylsulfanyl-thiophene-2-carboxamidine]
6 to 23 nM | CSc1sc(C(=N)N)cc1S(=O)(=O)c1cccc(-c2cccc([N+](=O)[O-])c2)c1 [Example 78, 5-Methylsulfanyl-4-(3′-nitro-biphenyl-3-sulfonyl)-thiophene-2-carboxamidine]
6 to 23 nM | C=CCOc1cc(-c2ccccc2)cc(S(=O)(=O)c2cc(C(=N)N)sc2SC)c1 [Example 16, 4-(5-Allyloxy-biphenyl-3-sulfonyl)-5-methylsulfanyl-thiophene-2-carboxamidine]
6 to 23 nM | Cc1ccccc1-c1cccc(S(=O)(=O)c2cc(C(=N)N)sc2Br)c1 [Example 24, 5-Bromo-4-(2′-methyl-biphenyl-3-sulfonyl)-thiophene-2-carboxamidine trifluoroacetate]
6 to 23 nM | CSc1sc(C(=N)N)cc1S(=O)(=O)c1cccc(-c2ccc(Cl)cc2)c1 [Example 53, 4-(4′-Chloro-biphenyl-3-sulfonyl)-5-methylsulfanyl-thiophene-2-carboxamidine]
6 to 23 nM | COc1cccc(S(=O)(=O)c2cc(C(=N)N)sc2SC)c1 [Example 114, 4-(3-Methoxy-benzenesulfonyl)-5-methylsulfanyl-thiophene-2-carboxamidine hydrochloride HCl]
6 to 23 nM | CSc1sc(C(=N)N)cc1S(=O)(=O)c1cccc(-c2cc(Cl)cc(Cl)c2)c1 [Example 46, 4-(3′,5′-Dichloro-biphenyl-3-sulfonyl)-5-methylsulfanyl-thiophene-2-carboxamidine]
6 to 23 nM | CSc1sc(C(=N)N)cc1S(=O)(=O)c1cccc(-c2c(C)cc(NC(=N)N)cc2NC(=O)CSCCC(=O)O)c1 [Example 239, 3-{[3′-(5-Carbamimidoyl-2-methylsulfanyl-thiophene-3-sulfonyl)-4-guanidino-6-methyl-biphenyl-2-ylcarbamoyl]-methylsulfanyl}-propionic acid bis-trifluoroacetate]
6 to 23 nM | CSc1sc(C(=N)N)cc1S(=O)(=O)c1cccc(-c2cc3ccccc3s2)c1 [Example 50, 4-(3-Benzo[b]thiophen-2-yl-benzenesulfonyl)-5-methylsulfanyl-thiophene-2-carboxamidine]
6 to 23 nM | CSc1sc(C(=N)N)cc1S(=O)(=O)c1cccc(-c2ccc3cccnc3c2)c1 [Example 59, 5-Methylsulfanyl-4-(3-quinolin-7-yl-benzenesulfonyl)-thiophene-2-carboxamidine]
6 to 23 nM | CSc1sc(C(=N)N)cc1S(=O)(=O)c1cccc(-c2c(C)cc(NC(=N)N)cc2NC(=O)CCCCC(=O)O)c1 [Example 261, 5-[3′-(5-Carbamimidoyl-2-methylsulfanyl-thiophene-3-sulfonyl)-4-guanidino-6-methyl-biphenyl-2-ylcarbamoyl]-pentanoic acid bis-trifluoroacetate]
6 to 23 nM | CSc1sc(C(=N)N)cc1S(=O)(=O)c1cc(OCc2ccccc2)cc(-c2ccccc2)c1 [Example 17, 4-(5-Benzyloxy-biphenyl-3-sulfonyl)-5-methylsulfanyl-thiophene-2-carboxamidine hydrochloride]
6 to 23 nM | CSc1sc(C(=N)N)cc1S(=O)(=O)c1cccc(-c2cccc(C(O)C(F)(F)F)c2)c1 (stereo not drawn) [Example 28, 5-Methylsulfanyl-4-[3′-(2,2,2-trifluoro-1-hydroxy-ethyl)-biphenyl-3-sulfonyl]-thiophene-2-carboxamidine trifluoroacetate]
6 to 23 nM | CSc1sc(C(=N)N)cc1S(=O)(=O)c1cccc(-c2ccccc2CO)c1 [Example 68, 4-(2′-Hydroxymethyl-biphenyl-3-sulfonyl)-5-methylsulfanyl-thiophene-2-carboxamidine]
6 to 23 nM | CSc1sc(C(=N)N)cc1S(=O)(=O)c1cccc(-c2cccc(C(C)=O)c2)c1 [Example 101, 4-(3′-acetyl-biphenyl-3-sulfonyl)-5-methylsulfanyl-thiophene-2-carboxamidine]
6 to 23 nM | CSc1sc(C(=N)N)cc1S(=O)(=O)c1cccc(-c2c(C)cccc2NC(=O)NCCCCCC(=O)O)c1 [Example 240, 6-{3-[3′-(5-Carbamimidoyl-2-methylsulfanyl-thiophene-3-sulfonyl)-6-methyl-biphenyl-2-yl]-ureido}-hexanoic acid trifluoroacetate]
6 to 23 nM | CSc1sc(C(=N)N)cc1S(=O)(=O)c1cccc(-c2c(C)cc(NC(=N)N)cc2NC(=O)CCCS(C)(=O)=O)c1 [Example 260, N-[3′-(5-Carbamimidoyl-2-methylsulfanyl-thiophene-3-sulfonyl)-4-guanidino-6-methyl-biphenyl-2-yl]-4-methanesulfonyl-butyramide bis-trifluoroacetate]
6 to 23 nM | CSc1sc(C(=N)N)cc1S(=O)(=O)c1cccc(-c2ccc(NC(N)=NCCCc3ccccc3)cc2C)c1 [Example 280, 4-{2′-Methyl-4′-[N′-(3-phenyl-propyl)-guanidino]-biphenyl-3-sulfonyl}-5-methylsulfanyl-thiophene-2-carboxamidine bistrifluoroacetate]
6 to 23 nM | N=C(N)c1cc(S(=O)(=O)c2cccc(-c3cccc(C=O)c3)c2)c(Br)s1 [Example 20, 5-Bromo-4-(3′-formyl-biphenyl-3-sulfonyl)-thiophene-2-carboxamidine trifluoroacetate]
6 to 23 nM | CSc1sc(C(=N)N)cc1S(=O)(=O)c1cccc(-c2ccco2)c1 [Example 76, 4-(3-Furan-2-yl-benzenesulfonyl)-5-methylsulfanyl-thiophene-2-carboxamidine]
6 to 23 nM | CSc1sc(C(=N)N)cc1S(=O)(=O)c1cccc(-c2ccccc2C(C)O)c1 (stereo not drawn) [Example 32, 4-[2′-(1-Hydroxy-ethyl)-biphenyl-3-sulfonyl]-5-methylsulfanyl-thiophene-2-carboxamidine trifluoroacetate]
6 to 23 nM | CSc1sc(C(=N)N)cc1S(=O)(=O)c1cccc(-c2cccnc2)c1 [Example 70, 5-Methylsulfanyt-4-(3-pyridin-3-yl-benzenesulfonyl)-thiophene-2-carboxamidine]
6 to 23 nM | CSc1sc(C(=N)N)cc1S(=O)(=O)c1cccc(-c2cnccc2C)c1 [Example 9, 4-[3-(4-Methyl-pyridin-3-yl)-benzenesulfonyl]-5-methylsulfanyl-thiophene-2-carboxamidine trifluoroacetate]
6 to 23 nM | CSc1sc(C(=N)N)cc1S(=O)(=O)c1cc(-c2ccccc2C)c2ncn(C)c2c1 [Example 108, 5-methylsulfanyl-4-(3-methyl-7-o-tolyl-3H-benzoimidazole-5-sulfonyl)-thiophene-2-carboxamidine trifluoroacetate]
6 to 23 nM | CSc1sc(C(=N)N)cc1S(=O)(=O)c1cccc(-c2cccc3c2oc2ccccc23)c1 [Example 66, 4-(3-Dibenzofuran-4-yl-benzenesulfonyl)-5-methylsulfanyl-thiophene-2-carboxamidine]
6 to 23 nM | CSc1sc(C(=N)N)cc1S(=O)(=O)c1cccc(-c2cc3[nH]cnc3cc2C)c1 [Example 30, 4-[3-(6-Methyl-3H-benzoimidazol-5-yl)-benzenesulfonyl]-5-methylsulfanyl-thiophene-2-carboxamidine bis-trifluoroacetate]
6 to 23 nM | CSc1sc(C(=N)N)cc1S(=O)(=O)c1cccc(-c2cnc3ccccc3c2)c1 [Example 73, 5-Methylsulfanyl-4-(3-quinolin-3-yl-benzenesulfonyl)-thiophene-2-carboxamidine]
6 to 23 nM | CSc1sc(C(=N)N)cc1S(=O)(=O)c1cccc(-c2ccc(NC(=N)NCCCCCS(C)(=O)=O)cc2C)c1 [Example 173, 4-{4′-[N′-(5-Methanesulfonyl-pentyl)-guanidino]-2′-methyl-biphenyl-3-sulfonyl}-5-methylsulfanyl-thiophene-2-carboxamidine trifluoroacetate]
